# Test results published in ChEMBL document CHEMBL3877312, “Synthesis, anticholinesterase activity and molecular modeling study of novel carbamate-substituted thymol/carvacrol derivatives” (Bioorg Med Chem, 2017).
# Experiments:
# [1] = biological target: Acetylcholinesterase (Electrophorus electricus, UniProt O42275); assay: Inhibition of electric eel AChE using acetylthiocholine iodide as substrate preincubated for 15 mins followed by substrate addition by Ellman's method
# [2] = biological target: Cholinesterase (Equus caballus, UniProt P81908); assay: Inhibition of horse serum BuChE using butyrylthiocholine iodide as substrate preincubated for 15 mins followed by substrate addition by Ellman's method
# [3] = Cytotoxicity against rat H4IIE cells assessed as cell viability at 0.07 uM after 24 hrs by MTT assay relative to control; format: toxicity; details: read-out: Activity
# [4] = Cytotoxicity against rat H4IIE cells assessed as cell viability at 0.15 uM after 24 hrs by MTT assay relative to control; format: toxicity; details: read-out: Activity
# [5] = Cytotoxicity against rat H4IIE cells assessed as cell viability at 0.3 uM after 24 hrs by MTT assay relative to control; format: toxicity; details: read-out: Activity
# [6] = Cytotoxicity against rat H4IIE cells assessed as cell viability at 0.6 uM after 24 hrs by MTT assay relative to control; format: toxicity; details: read-out: Activity
# [7] = Cytotoxicity against rat H4IIE cells assessed as cell viability at 1.25 uM after 24 hrs by MTT assay relative to control; format: toxicity; details: read-out: Activity
# [8] = Cytotoxicity against rat H4IIE cells assessed as cell viability at 2.5 uM after 24 hrs by MTT assay relative to control; format: toxicity; details: read-out: Activity
# [9] = Cytotoxicity against rat H4IIE cells assessed as cell viability at 5 uM after 24 hrs by MTT assay relative to control; format: toxicity; details: read-out: Activity
# [10] = Cytotoxicity against rat H4IIE cells assessed as cell viability at 10 uM after 24 hrs by MTT assay relative to control; format: toxicity; details: read-out: Activity
# Sequence of Acetylcholinesterase (O42275 whole entry): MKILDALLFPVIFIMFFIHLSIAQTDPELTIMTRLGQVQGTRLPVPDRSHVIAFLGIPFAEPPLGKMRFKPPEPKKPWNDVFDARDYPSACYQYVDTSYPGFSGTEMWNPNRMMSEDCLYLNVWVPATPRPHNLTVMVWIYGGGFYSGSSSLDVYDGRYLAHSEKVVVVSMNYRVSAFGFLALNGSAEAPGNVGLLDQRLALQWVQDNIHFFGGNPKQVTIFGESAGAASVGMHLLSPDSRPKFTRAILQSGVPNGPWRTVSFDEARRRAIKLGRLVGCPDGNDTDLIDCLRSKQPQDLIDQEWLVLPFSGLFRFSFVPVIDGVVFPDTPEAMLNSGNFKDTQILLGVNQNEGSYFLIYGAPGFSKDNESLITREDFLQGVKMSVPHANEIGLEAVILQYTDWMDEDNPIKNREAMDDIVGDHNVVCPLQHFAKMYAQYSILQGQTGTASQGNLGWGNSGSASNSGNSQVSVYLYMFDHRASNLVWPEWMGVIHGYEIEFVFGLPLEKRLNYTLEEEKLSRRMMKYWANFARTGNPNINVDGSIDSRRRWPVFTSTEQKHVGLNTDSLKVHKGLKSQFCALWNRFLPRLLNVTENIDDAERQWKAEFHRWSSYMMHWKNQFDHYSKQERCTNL
# Sequence of Cholinesterase (P81908 whole entry): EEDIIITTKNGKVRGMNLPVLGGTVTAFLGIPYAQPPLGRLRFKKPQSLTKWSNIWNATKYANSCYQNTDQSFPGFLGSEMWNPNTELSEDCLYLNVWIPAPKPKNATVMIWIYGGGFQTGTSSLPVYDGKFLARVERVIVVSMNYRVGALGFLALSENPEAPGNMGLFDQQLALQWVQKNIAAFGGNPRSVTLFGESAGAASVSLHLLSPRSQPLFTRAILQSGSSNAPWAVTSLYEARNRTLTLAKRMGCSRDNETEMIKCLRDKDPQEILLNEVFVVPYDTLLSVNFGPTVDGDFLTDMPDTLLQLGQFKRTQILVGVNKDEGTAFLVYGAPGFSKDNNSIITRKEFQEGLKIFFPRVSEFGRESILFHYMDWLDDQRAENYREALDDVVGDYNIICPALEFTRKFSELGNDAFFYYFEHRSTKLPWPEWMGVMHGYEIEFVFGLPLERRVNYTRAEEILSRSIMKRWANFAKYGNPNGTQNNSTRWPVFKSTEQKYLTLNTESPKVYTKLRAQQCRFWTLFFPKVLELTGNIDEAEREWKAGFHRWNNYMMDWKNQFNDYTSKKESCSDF
Structure (SMILES),IC50 [1] [µM],IC50 [2] [µM],further results
Cc1ccc(C(C)C)cc1OC(=O)Nc1ccccc1,4.01,0.55,"viability at 24 h, 0.07 µM [3]: 93.8%; viability at 24 h, 0.15 µM [4]: 87.9%; viability at 24 h, 0.3 µM [5]: 90%; viability at 24 h, 0.6 µM [6]: 82.5%; viability at 24 h, 1.25 µM [7]: 60%; viability at 24 h, 2.5 µM [8]: 43.3%; viability at 24 h, 5 µM [9]: 25.8%; viability at 24 h, 10 µM [10]: 26%"
Cc1ccc(C(C)C)c(OC(=O)Nc2ccc(Br)cc2)c1,98.6,107,
Cc1ccc(NC(=O)Oc2cc(C(C)C)ccc2C)cc1,6.17,0.31,
COc1cccc(NC(=O)Oc2cc(C)ccc2C(C)C)c1,154,1.65,
Cc1ccc(C(C)C)c(OC(=O)Nc2ccc(Cl)c(Cl)c2)c1,89.5,2.54,
Cc1ccc(C(C)C)c(OC(=O)Nc2ccc(I)cc2)c1,31.6,4.77,
Cc1ccc(C(C)C)c(OC(=O)NCC2CCCCC2)c1,,36.8,
Cc1ccc(C(C)C)cc1OC(=O)Nc1ccc(Br)cc1,104,0.15,
Cc1ccc(C(C)C)cc1OC(=O)Nc1cccc(F)c1,2.22,1.02,"viability at 24 h, 0.07 µM [3]: 98.1%; viability at 24 h, 0.15 µM [4]: 90%; viability at 24 h, 0.3 µM [5]: 74.1%; viability at 24 h, 0.6 µM [6]: 64.4%; viability at 24 h, 1.25 µM [7]: 47.8%; viability at 24 h, 2.5 µM [8]: 45.8%; viability at 24 h, 5 µM [9]: 37.2%; viability at 24 h, 10 µM [10]: 28.5%"
Cc1ccc(C(C)C)cc1OC(=O)NCc1ccccc1,77.8,0.07,
COc1ccc(NC(=O)Oc2cc(C(C)C)ccc2C)cc1,54.5,0.52,
Cc1ccc(C(C)C)c(OC(=O)Nc2ccc([N+](=O)[O-])cc2)c1,2.5,37.7,"viability at 24 h, 0.07 µM [3]: 97.8%; viability at 24 h, 0.15 µM [4]: 57.8%; viability at 24 h, 0.3 µM [5]: 54.4%; viability at 24 h, 0.6 µM [6]: 51.7%; viability at 24 h, 1.25 µM [7]: 47.2%; viability at 24 h, 2.5 µM [8]: 40%; viability at 24 h, 5 µM [9]: 32.8%; viability at 24 h, 10 µM [10]: 26.1%"
Cc1ccc(C(C)C)c(OC(=O)NCc2ccccc2)c1,111,1.45,
Cc1ccc(C(C)C)c(OC(=O)Nc2cccc3ccccc23)c1,157,96.1,
Cc1ccc(C(C)C)cc1OC(=O)NC1CCCC1,3.37,1.01,"viability at 24 h, 0.07 µM [3]: 94.4%; viability at 24 h, 0.15 µM [4]: 75.6%; viability at 24 h, 0.3 µM [5]: 71.1%; viability at 24 h, 0.6 µM [6]: 63.3%; viability at 24 h, 1.25 µM [7]: 50.4%; viability at 24 h, 2.5 µM [8]: 47.8%; viability at 24 h, 5 µM [9]: 38.9%; viability at 24 h, 10 µM [10]: 37.4%"
Cc1ccc(C(C)C)cc1OC(=O)Nc1ccc(Cl)cc1,148,0.13,
Cc1ccc(C(C)C)c(O)c1 [THYMOL],458,226,
Cc1ccc(C(C)C)cc1OC(=O)NC1CCCCCC1,126,112,
Cc1ccc(C(C)C)cc1OC(=O)Nc1cccc([N+](=O)[O-])c1,5.05,0.56,

Structure (SMILES),IC50 [1] [µM],IC50 [2] [µM],further results
Cc1ccc(C(C)C)c(OC(=O)Nc2ccccc2)c1,198,5.02,
Cc1ccc(C(C)C)c(OC(=O)Nc2cccc(F)c2)c1,88.5,3.85,
Cc1ccc(C(C)C)c(OC(=O)Nc2ccc(F)cc2)c1,270,405,
Cc1ccc(C(C)C)cc1OC(=O)NC1CCCCC1,23,1.03,
Cc1ccc(C(C)C)cc1OC(=O)Nc1cccc2ccccc12,127,0.51,
Cc1ccc(C(C)C)cc1OC(=O)NCC1CCCCC1,8.08,0.3,
Cc1ccc(C(C)C)cc1OC(=O)Nc1ccc(Cl)c(Cl)c1,86.2,0.41,
Cc1ccc(C(C)C)c(OC(=O)Nc2cccc([N+](=O)[O-])c2)c1,82.9,3.31,
Cc1ccc(C(C)C)c(OC(=O)Nc2ccc(Cl)cc2)c1,229,137,
Cc1ccc(C(C)C)cc1O [CARVACROL],288,411,
Cc1ccc(C(C)C)cc1OC(=O)Nc1ccc(F)cc1,3.02,0.02,"viability at 24 h, 0.07 µM [3]: 92.8%; viability at 24 h, 0.15 µM [4]: 69.4%; viability at 24 h, 0.3 µM [5]: 68.9%; viability at 24 h, 0.6 µM [6]: 65.9%; viability at 24 h, 1.25 µM [7]: 62.2%; viability at 24 h, 2.5 µM [8]: 41.6%; viability at 24 h, 5 µM [9]: 32.8%; viability at 24 h, 10 µM [10]: 28.5%"
COc1cccc(NC(=O)Oc2cc(C(C)C)ccc2C)c1,2.24,1.64,
Cc1ccc(C(C)C)cc1OC(=O)Nc1ccc([N+](=O)[O-])cc1,121,1.05,
Cc1ccc(C(C)C)cc1OC(=O)Nc1ccc(I)cc1,138,0.21,
Cc1ccc(C(C)C)c(OC(=O)NC2CCCC2)c1,420,167,
Cc1ccc(C(C)C)cc1OC(=O)Nc1ccc(C(F)(F)F)cc1,85.7,1.23,
Cc1ccc(C(C)C)c(OC(=O)Nc2ccc(C(F)(F)F)cc2)c1,98.5,148,
COc1ccc(NC(=O)Oc2cc(C)ccc2C(C)C)cc1,,60,
Cc1ccc(NC(=O)Oc2cc(C)ccc2C(C)C)cc1,229,9.4,
